Source: ChEMBL document CHEMBL1201862, “PubChem BioAssay data set” (2004)
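1) Cells in 96-well plates. 2) Compound, 48 h, 5 concentrations. 3) Linear interpolation between surrounding doses. 4) Unreached endpoint = highest concentration. At the GI50, growth is halved.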 Activity calls are given as the source filed them. No stated cut-off is given here; in the data, active = GI50 up to about 1.1 µM and inactive = higher.

What was measured:
Assay in all cases: DTP human tumour cell line panel, 48 h
ACHN = test system: ACHN
HCC 2998 = test system: HCC 2998
HCT-15 = test system: HCT-15
HOP-92 = test system: HOP-92
IGROV-1 = test system: IGROV-1
K562 = test system: K562
KM12 = test system: KM12
Malme-3M = test system: Malme-3M
NCI/ADR-RES = test system: NCI/ADR-RES
OVCAR-3 = test system: OVCAR-3
OVCAR-5 = test system: OVCAR-5
SK-MEL-28 = test system: SK-MEL-28
SK-OV-3 = test system: SK-OV-3
SNB-19 = test system: SNB-19
SNB-75 = test system: SNB-75
UACC-257 = test system: UACC-257
NCI-H522 = test system: NCI-H522
RXF 393 = test system: RXF 393
SF-539 = test system: SF-539
SN12C = test system: SN12C

| SMILES | GI50 (ACHN) | GI50 (HCC 2998) | GI50 (HCT-15) | GI50 (HOP-92) | GI50 (IGROV-1) | GI50 (K562) | GI50 (KM12) | GI50 (Malme-3M) | GI50 (NCI/ADR-RES) | GI50 (OVCAR-3) | GI50 (OVCAR-5) | GI50 (SK-MEL-28) | GI50 (SK-OV-3) | GI50 (SNB-19) | GI50 (SNB-75) | GI50 (UACC-257) | GI50 (NCI-H522) | GI50 (RXF 393) | GI50 (SF-539) | GI50 (SN12C) |
| --- | --- | --- | --- | --- | --- | --- | --- | --- | --- | --- | --- | --- | --- | --- | --- | --- | --- | --- | --- | --- |
| CO[C@@]12C[C@@H](C)C3=CCC(C)=C3CC1=C(C)C(=O)O2 | > 100 µM (inactive) | > 100 µM (inactive) | > 100 µM | > 100 µM (inactive) | > 100 µM (inactive) | 53.3 µM (inactive) | > 100 µM (inactive) | > 100 µM (inactive) | > 100 µM (inactive) | > 100 µM (inactive) | > 100 µM (inactive) | > 100 µM (inactive) | 68.7 µM (inactive) | > 100 µM (inactive) | 63.4 µM (inactive) | > 100 µM (inactive) |  |  |  |  |
| O=C(/C=C/c1c(O)ccc2ccccc12)c1cccc2ccccc12 | > 100 µM (inactive) | > 100 µM (inactive) | > 58.7 µM | > 100 µM (inactive) | > 100 µM (inactive) | 51.5 µM (inactive) | > 100 µM (inactive) | > 87.5 µM (inactive) |  | > 100 µM (inactive) | > 100 µM (inactive) | > 100 µM (inactive) | > 100 µM (inactive) | > 89.5 µM (inactive) | > 52.4 µM (inactive) | > 100 µM (inactive) | 27.5 µM (inactive) | > 100 µM (inactive) | > 100 µM (inactive) | > 100 µM (inactive) |
| CC(=O)C1C(=O)C(=O)N(c2ccc(Cl)c(Cl)c2)C1=O (configuration not stated) | > 100 µM (inactive) | > 100 µM (inactive) | > 100 µM | > 100 µM (inactive) | > 100 µM (inactive) |  | > 100 µM (inactive) |  | > 100 µM (inactive) | > 100 µM (inactive) | > 100 µM (inactive) | > 100 µM (inactive) | > 100 µM (inactive) | > 100 µM (inactive) | > 100 µM (inactive) | > 100 µM (inactive) |  |  | > 100 µM (inactive) | > 100 µM (inactive) |
| COC(=O)/C=C/c1cnc2c(c1)oc(=O)n2CCc1ccccn1 | > 100 µM (inactive) | > 100 µM (inactive) | > 100 µM |  | > 100 µM (inactive) | 73.3 µM (inactive) | > 100 µM (inactive) | > 100 µM (inactive) | 40.1 µM (inactive) | > 100 µM (inactive) | > 100 µM (inactive) | > 100 µM (inactive) | > 100 µM (inactive) | > 100 µM (inactive) | > 100 µM (inactive) | > 100 µM (inactive) |  |  | > 100 µM (inactive) | > 100 µM (inactive) |
| NC1=NN(c2ccccc2)C(=O)C1C(=O)C(=O)Nc1ccc(Cl)cc1 (configuration not stated) | > 100 µM (inactive) | > 100 µM (inactive) | > 100 µM | > 100 µM (inactive) | > 100 µM (inactive) | > 100 µM (inactive) | > 100 µM (inactive) | > 100 µM (inactive) |  | > 100 µM (inactive) | > 100 µM (inactive) | > 100 µM (inactive) | > 100 µM (inactive) |  | > 100 µM (inactive) | > 100 µM (inactive) | > 100 µM (inactive) | > 100 µM (inactive) | > 100 µM (inactive) | > 100 µM (inactive) |
| ClC1CCC2OOC1O2 (configuration not stated) | > 100 µM (inactive) | > 100 µM (inactive) | 87.3 µM | > 100 µM (inactive) | > 100 µM (inactive) | > 100 µM (inactive) | > 100 µM (inactive) | > 100 µM (inactive) |  | > 100 µM (inactive) | > 100 µM (inactive) | > 100 µM (inactive) | > 100 µM (inactive) | > 100 µM (inactive) | 82.2 µM (inactive) | > 100 µM (inactive) | > 100 µM (inactive) | > 100 µM (inactive) | > 100 µM (inactive) | > 100 µM (inactive) |
| CCCCCCCC/C=C/CCCCCCCC(=O)N(O)C1CC(n2cc(C)c(=O)[nH]c2=O)OC1CO (configuration not stated) | 6.03 µM (inactive) | 10.6 µM (inactive) | 4.67 µM | 13.8 µM (inactive) | 5.38 µM (inactive) | 0.488 µM (active) | 11.3 µM (inactive) | 9.71 µM (inactive) |  | 7.33 µM (inactive) | 10.4 µM (inactive) | 4.51 µM (inactive) | 10.3 µM (inactive) | 12.9 µM (inactive) | 12.1 µM (inactive) | 13.2 µM (inactive) | 7.76 µM (inactive) | 3.77 µM (inactive) | 11.6 µM (inactive) | 10.6 µM (inactive) |
| CCC1CN2CCC3(c4ccccc4)CC(C(=O)OC)=CC1C23 (configuration not stated) | 16.6 µM (inactive) | 16.7 µM (inactive) | 17.6 µM | 11.7 µM (inactive) | 20.4 µM (inactive) | 9.46 µM (inactive) | 15 µM (inactive) | 15.9 µM (inactive) |  | 19.2 µM (inactive) | 5.6 µM (inactive) | 17.7 µM (inactive) | 13.3 µM (inactive) | 20.4 µM (inactive) | 17.3 µM (inactive) | 16.4 µM (inactive) | 14.1 µM (inactive) | 18.3 µM (inactive) | 16.8 µM (inactive) | 16.1 µM (inactive) |
| CC1=C[C@]2(O)C(=O)[C@H](C)C[C@H]3[C@@H](CC[C@@](C)(O)/C=C\2C1=O)C3(C)C | 22.4 µM (inactive) | 30.3 µM (inactive) | 17 µM | 23 µM (inactive) | 23.4 µM (inactive) | > 100 µM (inactive) | 34.7 µM (inactive) | 22.8 µM (inactive) |  | 19.7 µM (inactive) | > 76.7 µM (inactive) | 18.5 µM (inactive) | > 56.8 µM (inactive) | 60.7 µM (inactive) | 33.3 µM (inactive) | 17.4 µM (inactive) | 13.7 µM (inactive) | 15.4 µM (inactive) | 22.4 µM (inactive) | 20.3 µM (inactive) |
| COC(=O)CCc1ccc2c(c1)[C@H](C(=O)OC)[C@@H](c1ccc(O)cc1)O2 | > 100 µM (inactive) | > 100 µM (inactive) | 58.9 µM | > 100 µM (inactive) | > 100 µM (inactive) | 61.1 µM (inactive) | > 100 µM (inactive) | > 100 µM (inactive) | > 100 µM (inactive) | > 100 µM (inactive) | > 100 µM (inactive) | > 100 µM (inactive) | > 100 µM (inactive) | > 100 µM (inactive) |  | > 100 µM (inactive) | 75.9 µM (inactive) |  | 25.6 µM (inactive) | > 100 µM (inactive) |
| CCC1(O)C[C@H]2CN(CCCc3c([nH]c4ccccc34)[C@@](C(=O)OC)(c3cc4c(cc3OC)N(C)C3[C@](O)(C(=O)OC)[C@H](OC(C)=O)[C@]5(CC)C=CCN6CC[C@]43[C@H]65)C2)C1 (some centres not stated) | > 2.92 µM (inactive) | 1.75 µM (inactive) | 2.99 µM | > 10 µM (inactive) | 2.88 µM (inactive) | 0.354 µM (active) | 0.578 µM (active) | 0.977 µM (active) |  | 0.281 µM (active) | 3.34 µM (inactive) | 3.56 µM (inactive) | 0.526 µM (active) | 1.77 µM (inactive) | 1.35 µM (inactive) | 1.34 µM (inactive) | 0.194 µM (active) | 0.834 µM (active) | 0.991 µM (active) | 3.61 µM (inactive) |
| CCCCCCCC(=O)OC[C@@H](C[As](=O)(O)O)OC(=O)CCCCCCC | 12.7 µM (inactive) | 15.7 µM (inactive) | 10.1 µM | 17.2 µM (inactive) | 5.21 µM (inactive) | 13.8 µM (inactive) |  | 14.1 µM (inactive) |  |  |  | 13.5 µM (inactive) | 14.6 µM (inactive) | 14.2 µM (inactive) | 11.5 µM (inactive) | 16.4 µM (inactive) | 1.56 µM (inactive) | 4.97 µM (inactive) | 10.5 µM (inactive) | 11.2 µM (inactive) |
| Cc1cc(C)nc(NS(=O)(=O)c2ccc(Nc3c4ccccc4nc4c(C(=O)Nc5ccc(S(=O)(=O)Nc6cc(C)on6)cc5)cccc34)cc2)n1 | 35.2 µM (inactive) | 16.8 µM (inactive) | > 100 µM | 18.7 µM (inactive) | 30.4 µM (inactive) | 23.2 µM (inactive) | 20 µM (inactive) | 24.2 µM (inactive) |  | 17.7 µM (inactive) | 24.3 µM (inactive) | 23.6 µM (inactive) | 27.1 µM (inactive) | 24.2 µM (inactive) | 32.3 µM (inactive) | 25.5 µM (inactive) | 14.7 µM (inactive) | 20.9 µM (inactive) | 16 µM (inactive) | 24.5 µM (inactive) |
| NNC(=O)/C(NC(=O)c1ccccc1)=C(\N)c1cccc([N+](=O)[O-])c1 | > 100 µM (inactive) | > 100 µM (inactive) | > 100 µM | > 100 µM (inactive) | > 100 µM (inactive) | > 100 µM (inactive) | > 100 µM (inactive) | > 100 µM (inactive) |  | > 100 µM (inactive) | > 100 µM (inactive) | > 100 µM (inactive) | > 100 µM (inactive) | > 100 µM (inactive) | > 100 µM (inactive) | > 100 µM (inactive) | > 100 µM (inactive) | > 100 µM (inactive) | > 100 µM (inactive) | > 100 µM (inactive) |
| COc1cccc2c1C(=O)c1c(O)c3c(c(O)c1C2=O)C[C@@](O)(C(C)=O)CC3S(=O)(=O)O (some centres not stated) | > 100 µM (inactive) | > 100 µM (inactive) | > 100 µM | > 100 µM (inactive) | > 100 µM (inactive) | > 100 µM (inactive) | > 100 µM (inactive) | > 100 µM (inactive) |  | > 100 µM (inactive) | > 100 µM (inactive) | > 100 µM (inactive) | > 100 µM (inactive) | > 100 µM (inactive) | > 50.5 µM (inactive) | > 100 µM (inactive) | > 100 µM (inactive) | > 100 µM (inactive) | > 100 µM (inactive) | > 100 µM (inactive) |
